Earlier results in patent US20040186131A1, “Method of preventing or treating atherosclerosis or restenosis” (priority 2002, published 2004).

Tested on: CMV infection of rats
Conditions: DHPG prophylaxis

For `Nc1nc(O)c2ncn(COC(CO)CO)c2n1` [Ganciclovir], which “prevention of atherosclerosis resulting from CMV infection” value is on record?
Its value is “prevent atherosclerosis”.
